Results as given in publication PMC9698483, “Berbamine Reduces Chloroquine-Induced Itch in Mice through Inhibition of MrgprX1” (International Journal of Molecular Sciences, 2022).

System: DCA-induced itch
Assay: DCA-induced pruritus in mice (scratching bouts)
Assay type: in vivo, BALB/c mice
Settings: 30 mg/kg i.p., DCA 50 μg/50 μL
Experimental: To investigate the antipruritic effect of berbamine, we observed the effect of berbamine on pruritogen-induced scratching behavior in BALB/c mice. Mice were transferred to clear cages and treated with berbamine intraperitoneally after a 30 min acclimatization period. Mouse behavior was recorded for 30 min right after the subcutaneous injection of pruritogens to the nape 30 min after berbamine treatment (Figure 7A). […] We further investigated the effect of berbamine on pruritus caused by other pruritogens.
Figure 7 Effect of berbamine on acute pruritogen-induced pruritus in mice: (A) Scheme of acute pruritogen-induced pruritus mouse model. […] Statistical significance of differences between each group and CQ group was assessed using one-way ANOVA with Tukey’s post hoc test. * p < 0.05, ** p < 0.01, *** p < 0.001. […] Statistical significance of differences was determined using Student’s t-test. […]
[…] six-week-old BALB/c male mice were purchased from DBL (Chungcheong-do, Republic of Korea), and an additional 1 week was given for accommodation. […] After 30 min, pruritogen compounds (i.e., CQ, histamine, PAR2-AP, and DCA) were subcutaneously administered into the nape, and scratching bouts were recorded for 30 min. […] The total number of scratching bouts was counted by recording the number of scratching bouts in the recorded video over 30 min of observation time.

COc1cc2c3cc1Oc1c(OC)c(OC)cc4c1[C@@H](Cc1ccc(O)c(c1)Oc1ccc(cc1)C[C@@H]3N(C)CC2)N(C)CC4 [berbamine]
effect on total scratching bouts induced by DCA: no significant effect
